Tested on: subjects with dIBS
Assay: Study of three rifaximin doses in subjects with dIBS: adequate relief of IBS symptoms and bloating
Assay type: in vivo, human
Details: for Treatment effect (Bloating) / Treatment effect (IBS Sx): matches RFX 550 2 w minus PBO success rate; for Adequate Relief of Bloating: Failure / Adequate Relief of Bloating: Success / Adequate Relief of IBS Symptoms: Failure / Adequate Relief of IBS Symptoms: Success: end of treatment phase
Procedure: This example relates to a study of three rifaximin doses in subjects with dIBS. Subjects were randomized to receive daily BID doses of rifaximin 275 mg, 550 mg, or 1100 mg for 14 days. A fifth group of subjects received rifaximin 550 mg BID for a period of 28 days. Subjects were questioned on the relief of overall IBS symptoms and bloating. […] The analyses defined success as a “yes” response to questions regarding adequate relief of SGA or IBS-B in at least 2 out of the final 3 weeks of the double-blind treatment period.
Baseline severity was determined using 7-point Lickert scales during screening for Abdominal Pain/Discomfort and Bloating, and the number, type (normal, hard, loose) and urgency of bowel movements.
Duration of effect was assessed in a 12 week follow-up period. Subjects that responded in the 4 week double-blind treatment period were followed for an additional 3 months. Fifty-three (53) subjects from the 550 mg 2 w and 59 subjects from the placebo-treated groups participated in this study phase.
Subjects recorded the following information on dIBS symptoms daily throughout the duration of the study: • Number of normal stools/day; • Number of hard and lumpy stools/day; • Number of loose or watery stools/day; • Number of loose or watery stools/day with the symptom of urgency; • How bothersome is abdominal pain and discomfort? [7-point response scale: 0 (not at all) to 6 (a very great deal)]; • How bothersome is bloating? [(7-point response scale: 0 (not at all) to 6 (a very great deal)].
Weekly summary variables were computed by averaging the recorded values over all pre-treatment days or over the seven days preceding the time point of interest for post-treatment assessments. For example, baseline included Days −10 to 0, Week 1 included Days 1 to 7, Week 2 included Days 8 to 14, and so forth through Week 16. Changes from baseline variables were computed for each weekly summary score.

[1] = 550 mg BID for 2 weeks, success = yes in at least 2 of final 3 weeks
[2] = GI Cleanser Prior to Rifaximin Administration: N
[3] = GI Cleanser Prior to Rifaximin Administration: Y
[4] = RFX 275 2 w (275 mg BID 14 days), Had a Screening Colonoscopy: No
[5] = RFX 275 2 w (275 mg BID 14 days), Had a Screening Colonoscopy: Yes
[6] = RFX 275 2 w (275 mg BID 14 days), Screening Colonoscopy <=26 Days
[7] = RFX 275 2 w (275 mg BID 14 days), Screening Colonoscopy >26 Days
[8] = RFX 275 2 w (275 mg BID 14 days), had screening colonoscopy, Average Abdominal Pain Discomfort Score at Baseline <=4
[9] = RFX 275 2 w (275 mg BID 14 days), had screening colonoscopy, Average Abdominal Pain Discomfort Score at Baseline >4
[10] = RFX 275 2 w (275 mg BID 14 days), had screening colonoscopy, Average Bloating Discomfort Score at Baseline <=4
[11] = RFX 275 2 w (275 mg BID 14 days), had screening colonoscopy, Average Bloating Discomfort Score at Baseline >4
[12] = RFX 550 2 w (550 mg BID 14 days), Had a Screening Colonoscopy: No
[13] = RFX 550 2 w (550 mg BID 14 days), Had a Screening Colonoscopy: Yes
[14] = RFX 550 2 w (550 mg BID 14 days), Screening Colonoscopy <=26 Days
[15] = RFX 550 2 w (550 mg BID 14 days), Screening Colonoscopy >26 Days
[16] = RFX 550 2 w (550 mg BID 14 days), had screening colonoscopy, Average Abdominal Pain Discomfort Score at Baseline <=4
[17] = RFX 550 2 w (550 mg BID 14 days), had screening colonoscopy, Average Abdominal Pain Discomfort Score at Baseline >4
[18] = RFX 550 2 w (550 mg BID 14 days), had screening colonoscopy, Average Bloating Discomfort Score at Baseline <=4

COC1/C=C/OC2(C)Oc3c(C)c(O)c4c(O)c(c5c(nc6cc(C)ccn65)c4c3C2=O)NC(=O)/C(C)=C\C=C\C(C)C(O)C(C)C(O)C(C)C(OC(C)=O)C1C [RFX, (2S,16Z,18E,20S,21S,22R,23R,24R,25S,26S,27S,28E)-5,6,21,23,25 Pentahydroxy-27-methoxy-2,4,11,16,20,22,24,26-octamethyl-2,7-(epoxypentadeca-(1,11,13)trienimino)benzofuro(4,5-e)pyrido(1,2,-a)benzimidazole-1,15(2H)-dione,25-acetate]
Duration of effect (maintaining symptom relief) versus placebo (550 mg BID 2 w responders, 12 week follow-up period): better chance of maintaining symptom relief | Adequate relief of IBS related symptoms (SGA) compared to placebo [1]: statistically significant relief | Adequate relief of IBS-related bloating (IBS-B) compared to placebo [1]: statistically significant relief | Treatment effect (Bloating) [2]: −0.9% | Treatment effect (IBS Sx) [2]: 4.7% | Treatment effect (Bloating) [3]: 13.8% | Treatment effect (IBS Sx) [3]: 11.6% | Adequate Relief of Bloating: Failure [4]: 36 (67.9%) n (%) | Adequate Relief of Bloating: Success [4]: 17 (32.1%) n (%) | Adequate Relief of IBS Symptoms: Failure [4]: 32 (60.4%) n (%) | Adequate Relief of IBS Symptoms: Success [4]: 21 (39.6%) n (%) | Adequate Relief of Bloating: Failure [5]: 24 (57.1%) n (%) | Adequate Relief of Bloating: Success [5]: 18 (42.9%) n (%) | Adequate Relief of IBS Symptoms: Failure [5]: 23 (54.8%) n (%) | Adequate Relief of IBS Symptoms: Success [5]: 19 (45.2%) n (%) | Adequate Relief of Bloating: Failure [6]: 10 (55.6%) n (%) | Adequate Relief of Bloating: Success [6]: 8 (44.4%) n (%) | Adequate Relief of IBS Symptoms: Failure [6]: 11 (61.1%) n (%) | Adequate Relief of IBS Symptoms: Success [6]: 7 (38.9%) n (%) | Adequate Relief of Bloating: Failure [7]: 14 (58.3%) n (%) | Adequate Relief of Bloating: Success [7]: 10 (41.7%) n (%) | Adequate Relief of IBS Symptoms: Failure [7]: 12 (50.0%) n (%) | Adequate Relief of IBS Symptoms: Success [7]: 12 (50.0%) n (%) | Adequate Relief of Bloating: Failure [8]: 22 (59.5%) n (%) | Adequate Relief of Bloating: Success [8]: 15 (40.5%) n (%) | Adequate Relief of IBS Symptoms: Failure [8]: 21 (56.8%) n (%) | Adequate Relief of IBS Symptoms: Success [8]: 16 (43.2%) n (%) | Adequate Relief of Bloating: Failure [9]: 2 (40.0%) n (%) | Adequate Relief of Bloating: Success [9]: 3 (60.0%) n (%) | Adequate Relief of IBS Symptoms: Failure [9]: 2 (40.0%) n (%) | Adequate Relief of IBS Symptoms: Success [9]: 3 (60.0%) n (%) | Adequate Relief of Bloating: Failure [10]: 22 (59.5%) n (%) | Adequate Relief of Bloating: Success [10]: 15 (40.5%) n (%) | Adequate Relief of IBS Symptoms: Failure [10]: 21 (56.8%) n (%) | Adequate Relief of IBS Symptoms: Success [10]: 16 (43.2%) n (%) | Adequate Relief of Bloating: Failure [11]: 2 (40.0%) n (%) | Adequate Relief of Bloating: Success [11]: 3 (60.0%) n (%) | Adequate Relief of IBS Symptoms: Failure [11]: 2 (40.0%) n (%) | Adequate Relief of IBS Symptoms: Success [11]: 3 (60.0%) n (%) | Adequate Relief of Bloating: Failure [12]: 59 (62.1%) n (%) | Adequate Relief of Bloating: Success [12]: 36 (37.9%) n (%) | Adequate Relief of IBS Symptoms: Failure [12]: 49 (51.6%) n (%) | Adequate Relief of IBS Symptoms: Success [12]: 46 (48.4%) n (%) | Adequate Relief of Bloating: Failure [13]: 44 (45.8%) n (%) | Adequate Relief of Bloating: Success [13]: 52 (54.2%) n (%) | Adequate Relief of IBS Symptoms: Failure [13]: 42 (43.8%) n (%) | Adequate Relief of IBS Symptoms: Success [13]: 54 (56.3%) n (%) | Adequate Relief of Bloating: Failure [14]: 18 (40.9%) n (%) | Adequate Relief of Bloating: Success [14]: 26 (59.1%) n (%) | Adequate Relief of IBS Symptoms: Failure [14]: 20 (45.5%) n (%) | Adequate Relief of IBS Symptoms: Success [14]: 24 (54.5%) n (%) | Adequate Relief of Bloating: Failure [15]: 26 (50.0%) n (%) | Adequate Relief of Bloating: Success [15]: 26 (50.0%) n (%) | Adequate Relief of IBS Symptoms: Failure [15]: 22 (42.3%) n (%) | Adequate Relief of IBS Symptoms: Success [15]: 30 (57.7%) n (%) | Adequate Relief of Bloating: Failure [16]: 38 (45.8%) n (%) | Adequate Relief of Bloating: Success [16]: 45 (54.2%) n (%) | Adequate Relief of IBS Symptoms: Failure [16]: 37 (44.6%) n (%) | Adequate Relief of IBS Symptoms: Success [16]: 46 (55.4%) n (%) | Adequate Relief of Bloating: Failure [17]: 6 (46.2%) n (%) | Adequate Relief of Bloating: Success [17]: 7 (53.8%) n (%) | Adequate Relief of IBS Symptoms: Failure [17]: 5 (38.5%) n (%) | Adequate Relief of IBS Symptoms: Success [17]: 8 (61.5%) n (%) | Adequate Relief of Bloating: Failure [18]: 36 (45.0%) n (%) | Adequate Relief of Bloating: Success [18]: 44 (55.0%) n (%) | Adequate Relief of IBS Symptoms: Failure [18]: 34 (42.5%) n (%) | Adequate Relief of IBS Symptoms: Success [18]: 46 (57.5%) n (%) | Adequate Relief of Bloating: Failure (RFX 550 2 w (550 mg BID 14 days), had screening colonoscopy, Average Bloating Discomfort Score at Baseline >4): 8 (50.0%) n (%)
